Measurements: US7820594B2 (priority 2003, dated 2010)
“And” between values parts separate entries of the source, which are not always exact repeats. Equal entries are not always repeated. Where two headings read alike, the source gives them in different places.

Assays:
Botrytis cinerea [1] = test: PDA plate inhibition, caprylic acid and organic acids (Example 13); assay type: cell-based
Protocol: (§1) Potato dextrose agar (PDA) plates, +/−amendments, were inoculated with selected pathogens. There were several replicate plates used per treatment group (per pathogen tested). After incubation of plates at room temperature, fungal growth was measured.

White mold [2] = test: as above; assay type: cell-based
Protocol: as §1

Botrytis cinerea [3] = tested on: Botrytis cinerea
Septoria = assay type: cell-based
Late blight = assay type: cell-based
White mold [4] = assay type: cell-based

CCNCC.O=C(O)c1ccccc1O [0.010% diethylamine salicylate, diethylamine salicylate]
Inhibition (%) of Botrytis cinerea (Botrytis cinerea [1]): 0% | Inhibition (%) of white mold (White mold [2]): 7%

O=C(O)C(O)C(O)C(=O)O (centres unmarked) [0.75% tartaric acid, tartaric acid]
Infected berries (% of total) (Botrytis cinerea [3]; Day 2 after treatment): 31% | Infected berries (% of total) (Botrytis cinerea [3]; Day 3 after treatment): 58%

O=C(O)CO [0.0175% glycolic acid, glycolic acid]
Measurement of fungal growth, based on control plate (100%) (Septoria): 80% and 90% | Measurement of fungal growth, based on control plate (100%) (Late blight; Day 2 after inoculum): 79% | Measurement of fungal growth, based on control plate (100%) (Late blight; Day 3 after inoculum): 104% | Measurement of fungal growth, based on control plate (100%) (White mold [4]): 127% and 108%
